From patent publication US8217041B2, “Indene derivatives, their preparation and use as medicaments” (Laboratories del Sr. Esteve, S.A., priority 2005, dated 2012) come the findings set out here.

Where two headings read alike, the source gives them in different places.

The target in the assay is T1, 5HT6 human recombinant receptor (Homo sapiens, UniProt P50406).
T1 construct: purchased Receptor Biology; host or cells: HEK-293 cell membranes
Kind of assay: Binding test to 5-HT6 receptors ([3H]-LSD displacement, HEK-293 cell membranes). Particulars: for inhibition at 1 µM: compound concentration 10^−6 M; for Ki: inhibition constant by non-linear regression (EBDA/LIGAND), [3H]-LSD 2.7 nM; for inhibition at 0.1 µM: read-out: % Inhibition 10^−7 M; for inhibition at 0.01 µM: read-out: % Inhibition 10^−8 M. How it is done: Binding Test to 5-HT6 Receptors
Membranes of HEK-293 cells expressing the 5HT6 human recombinant receptor were supplied by Receptor Biology. In these membranes the receptor concentration is 2.18 pmol/mg protein and the protein concentration is 9.17 mg/ml. The experimental protocol follows the method of B. L. Roth et al. [B. L. Roth, S. C. Craigo, M. S. Choudhary, A. Uluer, F. J. Monsma, Y. Shen, H. Y. Meltzer, D. R. Sibley: Binding of Typical and Atypical Antipsychotic Agents to 5-Hydroxytryptamine-6 and Hydroxytriptamine-7 Receptors. The Journal of Pharmacology and Experimental Therapeutics, 1994, 268, 1403] with slight modifications. The commercial membrane is diluted (dilution 1:40) with the binding buffer: 50 mM Tris-HCl, 10 mM MgCl2, 0.5 mM EDTA (pH 7.4). The radioligand used is [^3H]-LSD at a concentration of 2.7 nM with a final volume of 200 μl. Incubation is initiated by adding 100 μl of the membrane suspension (≈22.9 μg membrane protein), and continues for 60 minutes at a temperature of 37° C. Incubation ends by fast filtration in a Harvester Brandel Cell through glass fibre filters manufactured by Schleicher & Schuell GF 3362 pre-treated with a 0.5% polyethylenimine solution. The filters are washed three times with three milliliters of Tris-HCl 50 mM pH 7.4 buffer. The filters are transferred to vials and to each vial 5 ml of liquid scintillation cocktail Ecoscint H is added. The vials are allowed to reach equilibrium for several hours before being counted in a Wallac Winspectral 1414 scintillation counter. Non-specific binding is determined in the presence of 100 μM serotonin. The tests are performed in triplicate. The inhibition constants (Ki, nM) are calculated by non-linear regression analysis using the program EBDA/LIGAND [Munson and Rodbard, Analytical Biochemistry, 1980, 107, 220].

Where [1] appears, read: radioligand [3H]-LSD 2.7 nM, 60 min, 37° C.
The mark [2] stands for this setting: compound concentration 10^−7 M, radioligand [3H]-LSD 2.7 nM, 60 min, 37° C.
Setting [3] is: compound concentration 10^−8 M, radioligand [3H]-LSD 2.7 nM, 60 min, 37° C.

T1 sequence (P50406 whole entry): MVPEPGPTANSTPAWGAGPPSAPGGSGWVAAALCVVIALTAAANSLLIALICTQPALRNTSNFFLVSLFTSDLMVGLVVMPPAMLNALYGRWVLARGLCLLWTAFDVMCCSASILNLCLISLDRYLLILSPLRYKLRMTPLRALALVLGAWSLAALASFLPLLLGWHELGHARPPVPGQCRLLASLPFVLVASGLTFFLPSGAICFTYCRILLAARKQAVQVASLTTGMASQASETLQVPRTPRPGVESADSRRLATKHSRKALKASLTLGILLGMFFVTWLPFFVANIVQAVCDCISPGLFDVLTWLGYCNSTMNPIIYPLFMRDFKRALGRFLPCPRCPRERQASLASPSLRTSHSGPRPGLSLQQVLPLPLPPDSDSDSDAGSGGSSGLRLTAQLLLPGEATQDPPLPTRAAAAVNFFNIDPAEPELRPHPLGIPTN

Regarding `CC1=C(CCN2CCCC2)c2cc(NS(=O)(=O)c3ccc4ccccc4c3)ccc2C1` [Example 35, N-[2-Methyl-3-(2-pyrrolidin-1-ylethyl)-1H-inden-5-yl]naphthalene-2-sulfonamide], the Ki amounted to 62.9 nM. The inhibition at 1 µM under setting [1] is 92%.

Turning to `CC1=C(C2CCCN(C)C2)c2cc(NS(=O)(=O)c3c(Cl)nc4sccn34)ccc2C1` (stereo not shown) [Example 46, 6-Chloro-N-[2-methyl-3-(1-methylpiperidin-3-yl)-1H-inden-5-yl]imidazo[2,1-b] [1,3]thiazole-5-sulfonamide], the inhibition at 0.1 µM under setting [2] came to 85.8%. The inhibition at 0.01 µM under setting [3] was found to be 77.6%.

Turning to `CC1=C(CCN(C)C)c2cc(NS(=O)(=O)c3ccc4ccccc4c3)ccc2C1` [Example 34, N-[3-(2-Dimethylaminoethyl)-2-methyl-1H-inden-5-yl]naphthalene-2-sulfonamide], the Ki is 50.6 nM. Moreover, the inhibition at 1 µM under setting [1] was determined as 100%. In addition, the inhibition at 0.1 µM under setting [2] is 71%. Under setting [3], the inhibition at 0.01 µM turned out to be 18%.

For `CC1=C(CCN2CCCC2)c2cc(NS(=O)(=O)c3c(Cl)nc4sccn34)ccc2C1` [Example 29, N-[3-(2-Pyrrolidin-1-ylethyl)-2-methyl-1H-inden-5-yl]-6-chloroimidazo[2,1-b]thiazole-5-sulfonamide], the inhibition at 0.1 µM under setting [2] came to 82%. Further, the inhibition at 0.01 µM under setting [3] was 53%.

On to `CC1=C(CCN2CCCC2)c2cccc(NS(=O)(=O)c3ccc4ccccc4c3)c2C1` [Example 36, N-[2-Methyl-1-(2-pyrrolidin-1-ylethyl)-3H-inden-4-yl]naphthalene-2-sulfonamide], for which the inhibition constant Ki is 157 nM. Under setting [1], the inhibition at 1 µM worked out at 72%.

In the case of `CC1=C(CCO)c2cc(NS(=O)(=O)c3ccc4ccccc4c3)ccc2C1` [Example 40, N-[3-(2-Hydroxyethyl)-2-methyl-1H-inden-5-yl]naphthalene-2-sulfonamide], under setting [1], the inhibition at 1 µM was determined as 45%. Further, the inhibition at 0.1 µM under setting [2] turned out to be 16%. The inhibition at 0.01 µM under setting [3] turned out to be 8%.

Consider `CC1=C(CCN(C)C)c2cc(NS(=O)(=O)c3ccc4ccccc4c3)ccc2/C1=C\c1ccccc1` [Example 33, N-[1(Z)-Benzylidene-3-(2-dimethylaminoethyl)-2-methyl-1H-inden-5-yl]naphthalene-2-sulfonamide], for which the Ki was 216 nM.

With `CC1=C(CCN(C)C)c2cc(NS(=O)(=O)c3sc4ccc(Cl)cc4c3C)ccc2C1` [Example 20, N-[3-(2-Dimethylaminoethyl)-2-methyl-1H-inden-5-yl]-5-chloro-3-methylbenzo[b]thiophene-2-sulfonamide], under setting [2], the inhibition at 0.1 µM amounted to 42%. Further, the inhibition at 0.01 µM under setting [3] is 13%.

Consider `CC1=C(CCN(C)C)c2cc(NS(=O)(=O)c3c(Cl)nc4sccn34)ccc2C1` [Example 19, N-[3-(2-Dimethylaminoethyl)-2-methyl-1H-inden-5-yl]-6-chloroimidazo[2,1-b]thiazole-5-sulfonamide], for which the Ki worked out at 4.8 nM. Further, the inhibition at 1 µM under setting [1] is 97%.

Consider `CN(C)CCC1=CC(C)(C)c2ccc(NS(=O)(=O)c3c(Cl)nc4sccn34)cc21` [Example 41, 6-Chloro-N-{3-[2-(dimethylamino)ethyl]-1,1-dimethyl-1H-inden-5-yl}imidazo[2,1-b] [1,3]thiazole-5-sulfonamide], for which, under setting [2], the inhibition at 0.1 µM is 24.5%. Further, the inhibition at 0.01 µM under setting [3] is 9.4%.

For `CC1=C(CCN2CCCC2)c2cc(NS(=O)(=O)c3sc4ccc(Cl)cc4c3C)ccc2C1` [Example 38, N-[2-Methyl-3-(2-pyrrolidin-1-ylethyl)-1H-inden-5-yl]-5-chloro-3-methylbenzo[b]thiophene-2-sulfonamide], the Ki amounted to 20.2 nM. Also, under setting [1], the inhibition at 1 µM was 100%.

Consider `Cc1c(S(=O)(=O)Nc2ccc3c(c2)C(CCN(C)C)=CC3(C)C)sc2ccc(Cl)cc12` [Example 42, 5-Chloro-N-{3-[2-(dimethylamino)ethyl]-1,1-dimethyl-1H-inden-5-yl}-3-methylbenzo[b]thiophene-2-sulfonamide], for which the inhibition at 0.1 µM under setting [2] was found to be 2.3%. The inhibition at 0.01 µM under setting [3] is -7.5%.

`CC1=C(CCN(C)C)c2cc(NS(=O)(=O)c3cccc4ccccc34)ccc2C1` [Example 43, N-{3-[2-(Dimethylamino)ethyl]-2-methyl-1H-inden-5-yl}naphthalene-1-sulfonamide]: the inhibition at 0.1 µM under setting [2] turned out to be 78.4%. Besides, the inhibition at 0.01 µM under setting [3] is 32%.

Turning to `O=S(=O)(Nc1ccc2c(c1)C(CCN1CCCC1)=CC2)c1ccc2ccccc2c1` [Example 37, N-[3-(2-Pyrrolidin-1-ylethyl)-1H-inden-5-yl]naphthalene-2-sulfonamide], the Ki stood at 46.3 nM. Besides, under setting [1], the inhibition at 1 µM amounted to 92%.

Take `CC1=C(C2CCN(C)C2)c2cc(NS(=O)(=O)c3c(Cl)nc4sccn34)ccc2C1` (stereo not shown) [Example 45, 6-Chloro-N-[2-methyl-3-(1-methylpyrrolidin-3-yl)-1H-inden-5-yl]imidazo[2,1-b] [1,3]thiazole-5-sulfonamide]: the inhibition at 0.1 µM under setting [2] is 5.4%. Further, the inhibition at 0.01 µM under setting [3] was found to be 7.4%.

`CC1=C(CCN(C)C)c2cc(S(=O)(=O)Nc3cccc4ccccc34)ccc2C1` [Example 39, N-(Naphthalene-1-yl)-3-(2-dimethylaminoethyl)-2-methyl-1H-indene-5-sulfonamide]: the inhibition at 0.1 µM under setting [2] was found to be 51%. Also, the inhibition at 0.01 µM under setting [3] is 25%.

Regarding `CC1=C(CCN(C)C)c2cc(NS(=O)(=O)c3csc4ccccc34)ccc2C1` [Example 44, N-{3-[2-(Dimethylamino)ethyl]-2-methyl-1H-inden-5-yl}-1-benzothiophene-3-sulfonamide], the inhibition at 0.1 µM under setting [2] was 88.3%. The inhibition at 0.01 µM under setting [3] was 53%.

As for `CC1=C(CCN(C)C)c2cc(Cl)ccc2C1` [Example 47, 2-(5-Chloro-2-methyl-1H-inden-3-yl)-N,N-dimethylethanamine], the inhibition at 0.1 µM was 8.9% and the inhibition at 0.01 µM came to 16.2%.

`CC1=C(CCN2CCCC2)c2cc(NS(=O)(=O)c3ccc(N)cc3)ccc2C1` [Example 32, 4-Amino-N-[3-(2-pyrrolidin-1-ylethyl)-2-methyl-1H-inden-5-yl]benzene sulfonamide]: the inhibition at 0.1 µM under setting [2] is 63%. Moreover, the inhibition at 0.01 µM under setting [3] was found to be 26%.

As usually defined, the inhibition is the change of the read-out against control, counted positive when it falls. The term Ki denotes the equilibrium dissociation constant of an inhibitor or competing ligand from its target.
